Test results reported in PubChem BioAssay AID1963424 (Molecular Pharmacology Branch, DTP, NCI, 2024).
Several values for one entry are separate records, joined by “and”; a condition that tells them apart may be missing. Identical values can stand only once.

Tested on: 327498-153-R-J2-PDC complex spheroid growth, % test/control
Assay: Anticancer human tumor 327498-153-R-J2-PDC patient-derived uterine carcinosarcoma cell line growth inhibition [Asc]
Conditions: for viability, T/C: stronger effect = lower value
Experimental: Multicellular complex tumor spheroid response to apoptosis pathway targeting inhibitors Alrizomadlin, Pelcitoclax, and Dasminapant in combination with a variety of drugs and investigational agents in selected tumor cell lines
The MDM2 inhibitor alrizomadlin, the Bcl-2/Bcl-xL inhibitor pelcitoclax, and the IAPs inhibitor dasminapant were evaluated both individually and in combination with standard of care and investigational anticancer small molecules within a complex spheroid model of solid tumors. . Complex spheroids include a stromal component modeled by human endothelial cells (HUVEC) and fibroblasts modeled by human mesenchymal stem cells (MSCs). The concentration ranges selected for each drug and investigational agent were based upon clinically achievable concentrations if the clinical Cmax of the agent was known.
Compounds. The drugs and investigational agents: alrizomadlin (APG-115; NSC831270), pelcitoclax (APG-1252; NSC835773), dasminapant (APG-1387;NSC834197), TAK-243 (NSC785004), copanlisib (NSC809693), olaparib (NSC753686), talazoparib (NSC767125), cobimetinib (NSC 768068), eltanexor (KPT-8602, NSC 794443), abemaciclib (NSC 768073), sotorasib (NSC818433), adagrasib (NSC 831453), MRTX-1133 (NSC 836407), Iadademestat (ORY1001, NSC 806812), and RMC-4630 (NSC839698), were obtained from the NCI Developmental Therapeutics Program Chemical Repository. The FDA-approved anticancer drug set is available from the Developmental Therapeutics Program at https://dtp.cancer.gov/organization/dscb/obtaining/available plates.htm. […] The stock solutions were prepared in dimethyl sulfoxide (DMSO, Sigma-Aldrich, St. Louis, MO, cat. D2650) at 800-fold the tested concentration and stored at -70 degrees C prior to their use. All drugs and investigational agents were tested over a range starting from a high concentration at or near the clinical Cmax and decreasing in half-log increments. If the clinical Cmax for an agent had not been determined, the highest concentration tested was 10 microM.
The patient-derived cancer (PDC) cell lines include five colon adenocarcinomas: 186277-243-T-J2-PDC, 616215-338-R-J1-PDC, 439559-082-T-J2-PDC, 463943-066-T-J2-PDC, and 519858-162-T-J1-PDC; three pancreatic carcinomas: 323965-272-R-J2-PDC, 521955-158-R6-J3-PDC, and 521955-158-R2-J5-PDC; two uterine sarcomas: 327498-152-R-J2-PDC and 993429-296-R-J1-PDC; two rhabdomyosarcomas: 755483-174-R-J1-PDC and 772245-204-R-J1-PDC; two soft tissue sarcomas: 126254-015-R-J1-PDC and 494315-158-R-J1-PDC; two malignant fibrous histiocytomas: 317291-083-R-J1-PDC and 596521-263-R-J1-PDC; two breast carcinomas: 171881-019-R-J1-PDC and 885512-296-R-J2-PDC; and one ovarian carcinoma: 6556581-035-R-J-PDC were obtained from the NCI PDMR, (https://pdmr.cancer.gov). The established cell lines HSSY-2 synovial sarcoma (RRID:CVCL 8719), SYO-1 synovial sarcoma (RRID:CVCL_7146), MPNST malignant peripheral neural sheath tumor were obtained from the Sloan Kettering Institute. The following established cell lines were purchased from the American Type Culture Collection (ATCC, Manassas, VA), Sor the received from the NCI repository:, PANC-1 pancreatic carcinoma (CRL-1469, RRID:CVCL_0480), OVCAR-5 ovarian carcinoma (RRID:CVCL_1628), OVCAR-8 ovarian carcinoma (RRID:CVCL_1629), , MCF-7 breast carcinoma (CRL-12584, RRID:CVCL_0031), MDA-MB-231 breast carcinoma (CRL-12532, RRID:CVCL_0062), NCI-H1876 small cell lung carcinoma (CRL-5902, RRID:CVCL_1503), NCI-H510A small cell lung carcinoma (HTB-184, RRID:CVCL_1565), NCI-H1417 (CRL-5869, RRID:CVCL_1469), and NCI-H196 small cell lung carcinoma (CRL-5823, RRID:CVCL_1509). Dr. Peter Houghton (Greehey Children's Cancer Research Institute, University of Texas Health Science Center, San Antonio, TX) provided Rh-18 rhabdomyosarcoma (RRID:CVCL_1659). Pooled donor human umbilical vein endothelial cells (HUVEC, Lonza, cat. CC-2519) and human mesenchymal stem cells (hMSC, Lonza, cat. PT-2501) were purchased from Lonza (Walkersville, MD).
Cell Culture. […]

[1] = curve of first compound, second compound 0.01 µM
[2] = curve of first compound, second compound 0.0316 µM
[3] = curve of first compound, second compound 0.1 µM
[4] = curve of first compound, second compound 0.316 µM
[5] = curve of first compound, second compound 1 µM
[6] = second compound 0.01 µM, first compound 0.0316 µM
[7] = second compound 0.01 µM, first compound 0.1 µM
[8] = second compound 0.01 µM, first compound 0.316 µM
[9] = second compound 0.01 µM, first compound 1 µM
[10] = second compound 0.0316 µM, first compound 0.0316 µM
[11] = second compound 0.0316 µM, first compound 0.1 µM
[12] = second compound 0.0316 µM, first compound 0.316 µM
[13] = second compound 0.0316 µM, first compound 1 µM
[14] = second compound 0.1 µM, first compound 0.0316 µM
[15] = second compound 0.1 µM, first compound 0.1 µM
[16] = second compound 0.1 µM, first compound 0.316 µM
[17] = second compound 0.1 µM, first compound 1 µM
[18] = second compound 0.316 µM, first compound 0.0316 µM
[19] = second compound 0.316 µM, first compound 0.1 µM
[20] = second compound 0.316 µM, first compound 0.316 µM
[21] = second compound 0.316 µM, first compound 1 µM
[22] = second compound 1 µM, first compound 0.0316 µM
[23] = second compound 1 µM, first compound 0.1 µM
[24] = second compound 1 µM, first compound 0.316 µM
[25] = second compound 1 µM, first compound 1 µM
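Also: spheroids exposed to compound for 7 days after 3 days of growth.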
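For viability, T/C in this document: 100% = DMSO vehicle control wells.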

IC50 [1] | IC50 [2] | IC50 [3] | IC50 [4] | IC50 [5] | Structure (SMILES) | viability, T/C [6] | viability, T/C [7] | viability, T/C [8] | viability, T/C [9] | viability, T/C [10] | viability, T/C [11] | viability, T/C [12] | viability, T/C [13] | viability, T/C [14] | viability, T/C [15] | viability, T/C [16] | viability, T/C [17] | viability, T/C [18] | viability, T/C [19] | viability, T/C [20] | further results
> 10000 nM | > 10000 nM | > 10000 nM | > 10000 nM | > 10000 nM | C=CC(=O)N1CCN(c2nc(=O)n(-c3c(C)ccnc3C(C)C)c3nc(-c4c(O)cccc4F)c(F)cc23)C(C)C1 (configuration not stated) + CNC(C)C(=O)NC1CN(S(=O)(=O)c2cccc(S(=O)(=O)N3CCC4CCC(C(=O)NC(c5ccccc5)c5ccccc5)N4C(=O)C(NC(=O)C(C)NC)C3)c2)CCC2CCC(C(=O)NC(c3ccccc3)c3ccccc3)N2C1=O | 84.2% | 96% | 75% | 74.6% | 83.5% | 77.9% | 70.5% | 67% | 86% | 79.4% | 84.5% | 77.6% | 89.4% | 83.3% | 80.7% | viability, T/C (second compound 0.01 µM, first compound 3.16 µM): 77.8%; viability, T/C (second compound 0.01 µM, first compound 10 µM): 64.6%; viability, T/C (second compound 0.0316 µM, first compound 3.16 µM): 72.2%; viability, T/C (second compound 0.0316 µM, first compound 10 µM): 62.9%; viability, T/C (second compound 0.1 µM, first compound 3.16 µM): 70.4%; viability, T/C (second compound 0.1 µM, first compound 10 µM): 67.6%; viability, T/C [21]: 73.8%; viability, T/C (second compound 0.316 µM, first compound 3.16 µM): 77.2%; viability, T/C (second compound 0.316 µM, first compound 10 µM): 75.5%; viability, T/C [22]: 90.6%; viability, T/C [23]: 78.8%; viability, T/C [24]: 85.4%; viability, T/C [25]: 77%; viability, T/C (second compound 1 µM, first compound 3.16 µM): 72.2%; viability, T/C (second compound 1 µM, first compound 10 µM): 69.7%
391 nM | 377 nM | 377 nM | 304 nM | 430 nM | O=C(c1ccc(F)c(F)c1Nc1ccc(I)cc1F)N1CC(O)([C@@H]2CCCCN2)C1 + CNC(C)C(=O)NC1CN(S(=O)(=O)c2cccc(S(=O)(=O)N3CCC4CCC(C(=O)NC(c5ccccc5)c5ccccc5)N4C(=O)C(NC(=O)C(C)NC)C3)c2)CCC2CCC(C(=O)NC(c3ccccc3)c3ccccc3)N2C1=O | 81.7% | 78.5% | 55.7% | 23.5% | 89% | 76.4% | 55.7% | 22.9% | 85.8% | 76.8% | 56% | 21.9% | 77.7% | 75.7% | 48.2% | viability, T/C (second compound 0.01 µM, first compound 0.00316 µM): 97.4%; viability, T/C (second compound 0.01 µM, first compound 0.01 µM): 91.9%; viability, T/C (second compound 0.0316 µM, first compound 0.00316 µM): 104%; viability, T/C (second compound 0.0316 µM, first compound 0.01 µM): 98.6%; viability, T/C (second compound 0.1 µM, first compound 0.00316 µM): 104%; viability, T/C (second compound 0.1 µM, first compound 0.01 µM): 88%; viability, T/C (second compound 0.316 µM, first compound 0.00316 µM): 105%; viability, T/C (second compound 0.316 µM, first compound 0.01 µM): 102%; viability, T/C [21]: 22.6%; viability, T/C (second compound 1 µM, first compound 0.00316 µM): 104%; viability, T/C (second compound 1 µM, first compound 0.01 µM): 92.9%; viability, T/C [22]: 92.3%; viability, T/C [23]: 80.9%; viability, T/C [24]: 62.5%; viability, T/C [25]: 20%
 |  |  |  |  | C#Cc1c(F)ccc2cc(O)cc(-c3ncc4c(N5CC6CCC(C5)N6)nc(OCC56CCCN5CC(F)C6)nc4c3F)c12 (configuration not stated) |  |  |  |  |  |  |  |  |  |  |  |  |  |  |  | viability, T/C (compound 0.0316 µM): 108% and 96.6% and 89.6%; viability, T/C (compound 0.1 µM): 101% and 100% and 94%; viability, T/C (compound 0.316 µM): 101% and 82.7% and 90.7%; viability, T/C (compound 1 µM): 82.9% and 72.4% and 78.3%; viability, T/C (compound 3.16 µM): 69.9% and 64.9% and 68.1%; viability, T/C (compound 10 µM): 58% and 47.4% and 53.3%; IC50 (curve of compound): > 10000 nM and 8780 nM
